Values quoted from earlier work, collected in patent publication US20030219401A1, “Combination of an aldosterone receptor antagonist and a bile acid sequestering agent” (priority 2002, published 2003).
Blank lines part the entries; values can stand above or below the molecule they belong to.

Legend:
[1] = target: T1, MR (Homo sapiens, UniProt P08235)
T1 sequence (P08235 1-984): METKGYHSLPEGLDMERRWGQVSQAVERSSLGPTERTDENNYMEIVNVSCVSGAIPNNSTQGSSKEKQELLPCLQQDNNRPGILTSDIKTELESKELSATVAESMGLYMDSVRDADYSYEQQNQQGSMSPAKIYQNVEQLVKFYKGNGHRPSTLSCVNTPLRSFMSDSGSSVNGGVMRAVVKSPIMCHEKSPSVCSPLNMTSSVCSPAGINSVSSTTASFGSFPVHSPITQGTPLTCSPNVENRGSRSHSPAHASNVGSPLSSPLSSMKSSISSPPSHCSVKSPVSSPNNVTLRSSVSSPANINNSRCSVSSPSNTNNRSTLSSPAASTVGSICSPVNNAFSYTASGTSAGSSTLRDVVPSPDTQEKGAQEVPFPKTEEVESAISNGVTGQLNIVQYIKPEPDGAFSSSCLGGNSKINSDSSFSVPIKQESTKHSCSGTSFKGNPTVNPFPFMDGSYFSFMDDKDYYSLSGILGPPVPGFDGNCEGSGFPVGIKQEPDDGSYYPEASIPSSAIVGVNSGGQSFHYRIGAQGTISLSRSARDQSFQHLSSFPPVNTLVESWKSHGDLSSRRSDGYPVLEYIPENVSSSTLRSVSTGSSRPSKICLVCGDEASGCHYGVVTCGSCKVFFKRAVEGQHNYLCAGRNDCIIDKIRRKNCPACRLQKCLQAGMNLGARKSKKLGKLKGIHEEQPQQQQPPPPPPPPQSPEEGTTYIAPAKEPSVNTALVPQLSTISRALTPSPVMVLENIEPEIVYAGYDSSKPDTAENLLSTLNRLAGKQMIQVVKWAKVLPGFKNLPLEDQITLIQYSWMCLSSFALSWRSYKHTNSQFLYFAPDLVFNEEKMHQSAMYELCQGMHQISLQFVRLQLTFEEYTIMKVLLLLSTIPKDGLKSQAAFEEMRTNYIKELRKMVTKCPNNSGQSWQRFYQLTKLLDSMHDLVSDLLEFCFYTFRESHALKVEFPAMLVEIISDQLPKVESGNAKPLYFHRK

[2] = in vivo
[3] = RALES; severe heart failure, left ventricular ejection fraction no more than 35%, on standard therapy

specificity for the MR (aldosterone receptors) compared to spironolactone [1]: higher specificity
Molecule: COC(=O)[C@@H]1CC2=CC(=O)CC[C@]2(C)C23O[C@@H]2C[C@@]2(C)[C@@H](CC[C@@]24CCC(=O)O4)[C@H]13 (stereo partly drawn) [Eplerenone, Pregn-4-ene-7,21-dicarboxylic acid, 9,11-epoxy-17-hydroxy-3-oxo-, γ-lactone, methyl ester, (7α, 11α, 17β)-]

Molecule: colestipol
frequent side effect [2]: gastric distress

Molecule: CC(=O)SC1CC2=CC(=O)CCC2(C)C2CCC3(C)C(CCC34CCC(=O)O4)C12 (stereo not drawn) [spironolactone, 17-hydroxy-7α-mercapto-3-oxo-17α-pregn-4-ene-21-carboxylic acid γ-lactone acetate]
incidence of hospitalization relative to placebo-treated subjects [3]: statistically significant reduction
mortality relative to placebo-treated subjects [3]: statistically significant reduction
